Results taken from patent US7947695B2, “5-membered annelated heterocyclic pyrimidines as kinase inhibitors” (Janssen Pharmaceutica NV, priority 2005, dated 2011).

How the values were obtained:
CDK4/cyclinD1 = CDK4/cyclinD1 (Homo sapiens, UniProt P11802); experiment: In vitro filtration assay for CDK4 inhibitory activity (pRb phosphorylation, [33P]-ATP); type: biochemical; details: GST-pRb substrate, 1 μM unlabeled ATP, 25° C. 45 minutes, read-out: cdk4 filter (pIC50) (converted)
Method: (§1) Compounds of the present invention were tested in an in vitro filtration assay assessing CDK4 activity by means of its pRb-phosphorylation activity using [^33P]-ATP as phosphor donor. The radioactive phosphorylated pRb is then captured on filtermats and the incorporated [^33P] quantitated using a phosphorage storage screen.
The CDK4 kinase reaction is performed at 25° C. for 45 minutes in a 96-well microtiterplate. The 25 μl reaction volume contains 50 mM Hepes pH 7.5, 10 mM NaF, 10 mM MgCl2, 1 mM Na3VO4, 1 μM unlabeled ATP, 1 mM DTT, 0.5 μCi AT^33P, 0.76 μg/well GST-pRb, 50 ng CDK4/cyclinD1/well and 0.2% compound in 100% DMSO.
(§2) The reaction is stopped by adding 5 μl of a 3% phosphoric acid solution. 10 μl of the reaction mixture is then spotted onto a Filtermat P30 filter (Wallac) and washed 3 times for 5 min. in 75 mM phosphoric acid and 1 time for 5 min. in methanol prior to drying and quantification on the Typhoon (Amersham) using a phosphorage storage screen.
(§3) For each experiment, controls (containing enzyme (complex) and DMSO without compound), a blank incubation (containing DMSO but no enzyme (complex) or compound) and samples (containing enzyme (complex) and compound dissolved in DMSO) were run in parallel. All compounds tested were dissolved and eventually further diluted in DMSO. […] In each test, the blank value was subtracted from both the control and the sample values. The control sample represented maximal enzyme activity. For each sample, the amount of cpm was expressed as a percentage of the mean cpm value of the controls. When appropriate, IC50-values (concentration of the drug, needed to reduce the enzyme activity to 50% of the control) were computed using linear interpolation between the experimental points just above and below the 50% level. Herein the effects of test compounds are expressed as pIC50 (the negative log value of the IC50-value).

AURORA A = molecular target: T1, AURORA A (Homo sapiens, UniProt O14965); experiment: In vitro filtration assay for AURORA A inhibitory activity; type: biochemical; details: Kemptide substrate, 1 μM unlabeled ATP, 25° C. 40 minutes, read-out: Aurora A see C.2 (pIC50) (converted)
T1 sequence (O14965 1-403): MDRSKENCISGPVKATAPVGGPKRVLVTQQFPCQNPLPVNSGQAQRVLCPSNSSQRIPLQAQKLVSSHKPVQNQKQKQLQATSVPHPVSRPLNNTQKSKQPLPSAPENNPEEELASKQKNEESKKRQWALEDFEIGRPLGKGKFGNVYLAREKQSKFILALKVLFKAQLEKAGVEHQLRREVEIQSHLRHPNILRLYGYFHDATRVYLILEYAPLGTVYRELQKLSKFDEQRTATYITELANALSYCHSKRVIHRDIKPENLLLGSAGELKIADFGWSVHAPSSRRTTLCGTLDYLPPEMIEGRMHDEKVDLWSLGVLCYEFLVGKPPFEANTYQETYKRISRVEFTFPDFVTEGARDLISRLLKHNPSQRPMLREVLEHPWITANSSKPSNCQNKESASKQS
Method: as §1, with “AURORA A” for “CDK4”, “substrate-phosphorylation” for “pRb-phosphorylation”, “substrate” for “pRb”
The Aurora-A kinase reaction is performed at 25° C. for 40 minutes in a 96-well microtiterplate. The 25 μl reaction volume contains 12 mM MOPS pH 7, 0.4 mM EDTA, 0.002% Brij35, 1% glycerol, 0.02% beta-mercapto-ethanol, 0.2 mg/ml BSA, 1 μM unlabeled ATP, […] [^33P]-ATP, 200 μM Kemptide, 3 ng Aurora A/well and 0.2% compound in 100% DMSO.
as §2, §3

AURORA B = AURORA B (Homo sapiens, UniProt Q96GD4); experiment: In vitro filtration assay for AURORA B inhibitory activity; type: biochemical; details: peptide (C(LRRWSLG)×4), 1 μM unlabeled ATP, 25° C. 40 minutes, read-out: Aurora B see C.3 (pIC50) (converted)
AURORA B, sequence (Q96GD4 whole entry): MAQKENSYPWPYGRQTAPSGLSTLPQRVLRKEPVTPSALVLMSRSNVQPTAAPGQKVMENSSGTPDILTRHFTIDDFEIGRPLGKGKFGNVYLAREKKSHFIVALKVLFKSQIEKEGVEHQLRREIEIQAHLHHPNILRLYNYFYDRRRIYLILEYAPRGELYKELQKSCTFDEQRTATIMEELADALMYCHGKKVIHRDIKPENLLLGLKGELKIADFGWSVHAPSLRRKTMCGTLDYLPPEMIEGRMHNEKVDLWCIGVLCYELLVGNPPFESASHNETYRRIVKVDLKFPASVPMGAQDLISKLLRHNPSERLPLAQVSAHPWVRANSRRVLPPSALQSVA
Method: as §1, with “AURORA B” for “CDK4”, “substrate-phosphorylation” for “pRb-phosphorylation”, “substrate” for “pRb”
The Aurora-B kinase reaction is performed at 25° C. for 40 minutes in a 96-well microtiterplate. The 25 μl reaction volume contains 60 mM Hepes pH 7.5, 3 mM MgCl2, 3 mM MnCl2, 3 μM Na3VO4, 50 μg/ml PEG20000, 1 μM unlabeled ATP, 1 mM DTT, 0.2 μCi AT^33P, 0.25 μg/well peptide (C(LRRWSLG)×4),100 ng Aurora-B/well and 0.2% compound in 100% DMSO. The reaction is stopped by adding 5 μl of a 3% phosphoric acid solution. 10 μl of the reaction mixture is then spotted onto a Filtermat P30 filter (Wallac) and washed 3 times for 5 min. in 75 mM phosphoric acid and 1 time for 5 min. in methanol prior to drying and quantification on the Typhoon (Amersham) using a phosphorage storage screen.
as §3

[1] = molecular target: CDK4/cyclinD1 enzyme complex (Homo sapiens, UniProt P11802); experiment: In vitro scintillation proximity assay (SPA) for CDK4 inhibitory activity; type: biochemical; details: GST-pRb substrate, 33P-ATP, 25° C. 30 minutes, read-out: cdk4 SPA see C.4 (pIC50) (converted)
CDK4/cyclinD1 enzyme complex, sequence (P11802 whole entry): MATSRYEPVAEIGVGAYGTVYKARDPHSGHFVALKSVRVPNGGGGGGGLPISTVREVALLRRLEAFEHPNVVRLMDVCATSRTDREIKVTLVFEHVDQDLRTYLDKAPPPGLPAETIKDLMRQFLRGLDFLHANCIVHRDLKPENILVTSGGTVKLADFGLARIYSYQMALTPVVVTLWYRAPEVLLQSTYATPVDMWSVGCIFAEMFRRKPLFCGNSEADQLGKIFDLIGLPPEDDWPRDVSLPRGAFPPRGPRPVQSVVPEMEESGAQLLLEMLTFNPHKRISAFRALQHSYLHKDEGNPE
CDK4/cyclinD1 enzyme complex, sequence (P24385 whole entry partner): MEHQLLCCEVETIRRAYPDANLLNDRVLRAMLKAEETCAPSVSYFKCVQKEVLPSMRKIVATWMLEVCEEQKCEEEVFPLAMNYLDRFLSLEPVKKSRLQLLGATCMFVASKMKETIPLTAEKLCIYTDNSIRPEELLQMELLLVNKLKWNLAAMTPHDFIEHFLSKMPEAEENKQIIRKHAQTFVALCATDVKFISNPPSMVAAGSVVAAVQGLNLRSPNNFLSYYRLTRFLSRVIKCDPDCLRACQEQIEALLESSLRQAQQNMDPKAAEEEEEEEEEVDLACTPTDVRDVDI
Method: Compounds of the present invention were tested in an in vitro assay based on SPA technology.
In principle, the assay relies upon the well established SPA technology for the detection of CDK4 phosphorylated proteins, i.e pRb. This phosphorylation is performed using I0 CDK4/cyclinD1 enzyme complex and ^33P-ATP as phosphor donor.
The CDK4 SPA kinase reaction is performed at 25° C. for 30 minutes in a 96-well microtiter plate. The 100 μl reaction volume contains 40 mM Hepes, 6 mM NaF, 6 mM MgCl2, 0.6 mM Na3VO4, 2 μg/ml Pepstatin, 2 μg/ml Leupeptin, 2 μg/ml Aprotinin, 50 μg/ml TLCK, 150 μg/ml DTT, 0.3 μg/ml benzamide, 0.1 μCi ^33P-ATP, 1.7 μg GST-pRb, 50 ng CDK4/cyclinD1/well and 0.2% compound in 100% DMSO. The reaction is stopped by adding to each well 100 μl of the glutathione coated SPA beads (10 mg/ml in PBS+10 mM EDTA+100 μM ATP+0.05% Triton X 100). The plates are then shaked at 300 rpm for 30 min to allow binding of the GST-tagged substrate to the glutathione coated beads. The beads are allowed to settle at the bottom of the plate for 30 minutes. The microtiterplates are centrifuges at 800 rpm for 10 minutes and the amount of phosphorylated (^33P) substrate is determined by counting (30 sec/well) in a microtiterplate scintillation counter.
as §3

CDK4/cyclinD1, sequence (P11802 whole entry): as the sequence (P11802 whole entry) above
CDK4/cyclinD1, sequence (P24385 whole entry partner): as the sequence (P24385 whole entry partner) above

Row | IC50 (CDK4/cyclinD1) [nM] | IC50 (AURORA A) [nM] | melting point [°C] | IC50 (AURORA B) [nM] | IC50 [1] [nM] | SMILES
1 | 3.16 | 126 | 180 | 251 | 5.01 | CN1CCN(c2ccc(Nc3ncc4cnn(C5CCCCC5)c4n3)cc2)CC1 [Co. No. 1]
2 | 1000 | – | – | – | 631 | O=c1[nH]c2cnc(Nc3ccc(N4CCOCC4)cc3)nc2n1C1CCCCC1 [compound 78]
3 | 1580 | 3160 | – | > 10000 | 1000 | O=c1[nH]n(C2CCCCC2)c2nc(Nc3ccc(N4CCC(CCCO)CC4)cc3)ncc12 [compound 94]
4 | 126 | 251 | 177 to 181 | 794 | – | O=C(NC1CCN(CCO)CC1)c1ccc(Nc2ncc3cnn(C4CCCCC4)c3n2)cc1 [Co. No. 9]
5 | 31.6 | 158 | – | 398 | 6.31 | CN1CCN(c2ccc(Nc3ncc4cnn(C5CCCC5)c4n3)cc2)CC1 [compound 11]
6 | 39.8 | 63.1 | – | 251 | 20 | c1cc(N2CCOCC2)ccc1Nc1ncc2cnn(C3CCCCC3)c2n1 [compound 12]
7 | 251 | > 10000 | 294 | > 10000 | 100 | CN1CCN(c2ccc(Nc3ncc4[nH]c(=O)n(C5CCCCC5)c4n3)cc2)CC1 [Co. No. 6]
8 | 631 | > 10000 | 203.5 to 203.6 | > 10000 | 3160 | CN1CCN(c2ccc(Nc3ncc4ncn(C5CCCCC5)c4n3)cc2)CC1 [Co. No. 5]
9 | 79.4 | 50.1 | – | > 10000 | 12.6 | OCCCC1CCN(c2ccc(Nc3ncc4cnn(C5CCCCC5)c4n3)cc2)CC1 [compound 10]
10 | 63.1 | 50.1 | – | > 10000 | 50.1 | OCCCC1CCN(c2ccc(Nc3ncc4cnn(C5CCCC5)c4n3)cc2)CC1 [compound 13]
11 | 5010 | 1580 | – | > 10000 | 2510 | O=c1[nH]n(C2CCCC2)c2nc(Nc3ccc(N4CCOCC4)cc3)ncc12 [compound 93]
12 | 631 | 7940 | – | > 10000 | 1260 | CN1CCN(c2ccc(Nc3ncc4c(=O)[nH]n(C5CCCC5)c4n3)cc2)CC1 [compound 91]
13 | 6310 | – | – | > 10000 | 2510 | O=c1[nH]n(C2CCCC2)c2nc(Nc3ccc(N4CCC(CCCO)CC4)cc3)ncc12 [compound 92]
14 | 79.4 | – | > 260 | 398 | 158 | CN1CCN(c2ccc(Nc3ncc4c(=O)[nH]n(C5CCCCC5)c4n3)cc2)CC1 [Co. No. 7]
15 | 20 | 79.4 | – | 794 | 3.98 | CN1CCN(c2ccc(Nc3ncc4cnn(-c5ccccc5)c4n3)cc2)CC1 [compound 14]
16 | > 10000 | > 10000 | – | > 10000 | – | CC(C)(C)OC(=O)N(c1ccc(CN2CCOCC2)cc1)c1ncc2cnn(C3CCOCC3)c2n1 [compound 50]
17 | 631 | > 10000 | – | > 10000 | – | OCCN1CCN(Cc2ccc(Nc3ncc4cnn(C5CCOCC5)c4n3)cc2)CC1 [compound 54]
18 | 2000 | > 10000 | – | > 10000 | – | CN1CCN(Cc2ccc(Nc3ncc4[nH]c(=O)n(C5CCCCC5)c4n3)cc2)CC1 [compound 79]
19 | > 10000 | > 10000 | – | > 10000 | – | COCCCN(C(=O)OC(C)(C)C)C1CCN(Cc2ccc(N(C(=O)OC(C)(C)C)c3ncc4cnn(C5CCCCC5)c4n3)cc2)CC1 [compound 46]
20 | 31.6 | 316 | – | 3980 | – | COCCCNC1CCN(Cc2ccc(Nc3ncc4cnn(C5CCCCC5)c4n3)cc2)CC1 [compound 47]
21 | 100 | 501 | 240 | > 10000 | – | O=S(=O)(c1ccc(Nc2ncc3cnn(C4CCCCC4)c3n2)cc1)N1CCOCC1 [Co. No. 8]
